Results: patent publication US10221178B2, “Purine inhibitors of human phosphatidylinositol 3-kinase delta” (MERCK SHARP & DOHME CORP., priority 2015, dated 2019)

Columns and labels:
PI3Kdelta = PI3Kdelta (Homo sapiens (Human), UniProt O00329); assay: HTRF PI3K biochemical assay, delta isoform; conditions: 0.3 nM enzyme, 100 uM ATP, 5 uM PIP2, form screened: Neutral
Excerpt: (§1) HTRF PI3K Biochemical Assay to Measure Intrinsic Potency of Compound Inhibitors
(§2) The PI3-Kinase biochemical assays were developed to measure the intrinsic potency and compound dependent inhibition of the alpha, beta, delta, and gamma PI3K isoform enzymes.
(§3) This assay was developed and further optimized from a kit produced by Upstate (Millipore catalog #33-047) and has been configured for HTS (high throughput screening) and SAR screening. Briefly, this procedure exploits the exquisite specificity and high affinity binding of enzyme reaction substrate phosphatidyl(3,4,5)triphosphate (PIP3) to the GRP1 pleckstrin homology (PH) domain to generate the signal. In the absence of PIP3, an HTRF (Homogeneous Time-Resolved Fluorescence energy transfer) complex is formed consisting of europium (Eu)-labeled anti-GST, GSTtagged GRP1-PH domain, biotin-PIP3 and streptavidin conjugated APC. The native PIP3 produced by PI3-Kinase activity disrupts in a competitive manner the biotin-PIP3 from the PH domain, resulting in the loss of energy transfer (HTRF complex) and a decrease in the signal. The format of this assay is the same for all 4 isoforms of PI3K; the differences lie in the concentration of enzyme used to achieve robust assay window. The alpha, beta, and delta assays are run at 0.5, 1, and 0.3 nM enzymes and the gamma assay is run at 5 nM enzyme. The ATP concentration is 100 uM in the alpha, beta, and delta assays and 50 uM ATP in the gamma assay. All reactions are run at 5 uM PIP2.
(§4) Compounds are serially diluted (3-fold in 100% DMSO) across a 384-well polypropylene source plated from column 3 to column 12 and column 13 to column 22, to yield 10 concentration dose response for each test compound. Columns 1, 2, 23 and 24 contain either only DMSO or pharmacological known control inhibitor. Once titrations are made, 2.5 nL of the compounds on 384 well plates are reformatted and transferred by acoustic dispense in quadruplicates to a 1536 assay plate (Greiner) to assay across all four PI3K isoform enzymes.
(§5) The PI3-Kinase biochemical assay was optimized using the HTRF kit provided by Upstate (Millipore). The assay kit contains six reagents: 1) 4× Reaction Buffer; 2) native PIP2 (substrate); 3) Stop (EDTA); 4) Detection Mix A (Streptavidin-APC); 5) Detection Mix B (Eu-labeled Anti-GST plus GST-tagged PH-domain); 6) Detection Mix C. In addition, the following items were obtained or purchased; PI3Kinase (alpha 14-602, beta 14-603, gamma 14-558 and delta 14-604 from Upstate; Millipore), dithiothreitol (Sigma, D-5545), Adenosine-5′ triphosphate (InVitrogen, Cat#AS001A), native PIP3 (PI(3,4,5)P3, diC8, H^+, CELLSIGNALS, INC. Cat #907) DMSO (Sigma, 472301).
(§6) PI3Kinase Reaction Buffer is prepared by dilution the stock 1:4 with de-ionized water. DTT, PIP2 and Biotin-PIP3 were added to 1536 assay plate at a final concentration of 5 mM, […] on the day of use. Enzyme addition and compound pre-incubation are initiated by the addition of 1.25 ul of PI3K (at twice its final concentration) in the 1× reaction buffer to all wells using a BioRaptor. Plates are incubated at RT for 15 minutes. Reactions are initiated by addition of 1.25 ul of 2× substrate solution (PIP2 and ATP in 1× reaction buffer) using BioRaptor. Plates are incubated in humidified chamber at RT for one hour. Reactions are quenched by addition of 0.625 uL of stop solution to all wells using the BioRaptor. The quenched reactions are then processed to detect product formation by adding 0.625 uL of Detection Solution to all wells using the BioRaptor (Detection mix C, Detection Mix A, and Detection Mix B combined together in an 18:1:1 ratio prepared 2 hours prior to use). Following a one hour incubation in the dark, the HTRF signal is measured on the Envision plate reader set for 330 nm excitation and dual emission detection at 620 nM (Eu) and 665 nM (APC).

PI3Kalpha = PI3Kalpha (Homo sapiens (Human), UniProt P42336); assay: HTRF PI3K biochemical assay, alpha isoform (selectivity versus PI3Kalpha); conditions: relative ratio (PI3K-alpha IC50 value/PI3K-delta IC50 value); form screened: Neutral
PI3Kalpha, sequence (P42336 whole entry, canonical isoform): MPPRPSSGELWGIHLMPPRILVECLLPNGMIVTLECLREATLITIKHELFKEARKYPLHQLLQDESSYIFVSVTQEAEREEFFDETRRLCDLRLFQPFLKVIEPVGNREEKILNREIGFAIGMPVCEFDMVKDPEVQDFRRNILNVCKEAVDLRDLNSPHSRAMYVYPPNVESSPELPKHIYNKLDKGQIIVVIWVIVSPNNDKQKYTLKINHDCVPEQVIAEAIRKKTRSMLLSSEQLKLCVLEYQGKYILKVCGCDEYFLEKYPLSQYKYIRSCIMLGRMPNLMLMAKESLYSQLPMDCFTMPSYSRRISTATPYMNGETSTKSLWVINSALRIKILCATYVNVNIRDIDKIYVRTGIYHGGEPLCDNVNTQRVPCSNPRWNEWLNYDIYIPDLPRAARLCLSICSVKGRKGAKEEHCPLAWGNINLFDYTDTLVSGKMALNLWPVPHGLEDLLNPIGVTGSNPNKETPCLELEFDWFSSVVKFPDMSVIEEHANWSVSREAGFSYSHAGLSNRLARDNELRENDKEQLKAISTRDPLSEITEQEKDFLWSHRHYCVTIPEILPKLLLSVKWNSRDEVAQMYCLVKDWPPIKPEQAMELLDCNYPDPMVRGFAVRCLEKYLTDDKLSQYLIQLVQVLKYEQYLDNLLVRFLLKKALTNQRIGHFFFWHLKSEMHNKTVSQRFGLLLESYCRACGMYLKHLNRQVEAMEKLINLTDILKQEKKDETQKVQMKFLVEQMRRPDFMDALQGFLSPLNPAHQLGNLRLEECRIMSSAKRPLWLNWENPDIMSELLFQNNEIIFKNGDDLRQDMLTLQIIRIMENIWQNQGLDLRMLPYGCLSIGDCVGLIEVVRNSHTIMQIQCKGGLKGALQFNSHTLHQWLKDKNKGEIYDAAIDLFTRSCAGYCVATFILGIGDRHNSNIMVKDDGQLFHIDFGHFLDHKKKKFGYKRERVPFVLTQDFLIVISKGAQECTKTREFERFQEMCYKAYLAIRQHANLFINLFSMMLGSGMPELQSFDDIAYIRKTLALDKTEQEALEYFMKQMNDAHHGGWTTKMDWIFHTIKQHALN
PI3Kalpha, sequence (P27986 whole entry partner, canonical isoform): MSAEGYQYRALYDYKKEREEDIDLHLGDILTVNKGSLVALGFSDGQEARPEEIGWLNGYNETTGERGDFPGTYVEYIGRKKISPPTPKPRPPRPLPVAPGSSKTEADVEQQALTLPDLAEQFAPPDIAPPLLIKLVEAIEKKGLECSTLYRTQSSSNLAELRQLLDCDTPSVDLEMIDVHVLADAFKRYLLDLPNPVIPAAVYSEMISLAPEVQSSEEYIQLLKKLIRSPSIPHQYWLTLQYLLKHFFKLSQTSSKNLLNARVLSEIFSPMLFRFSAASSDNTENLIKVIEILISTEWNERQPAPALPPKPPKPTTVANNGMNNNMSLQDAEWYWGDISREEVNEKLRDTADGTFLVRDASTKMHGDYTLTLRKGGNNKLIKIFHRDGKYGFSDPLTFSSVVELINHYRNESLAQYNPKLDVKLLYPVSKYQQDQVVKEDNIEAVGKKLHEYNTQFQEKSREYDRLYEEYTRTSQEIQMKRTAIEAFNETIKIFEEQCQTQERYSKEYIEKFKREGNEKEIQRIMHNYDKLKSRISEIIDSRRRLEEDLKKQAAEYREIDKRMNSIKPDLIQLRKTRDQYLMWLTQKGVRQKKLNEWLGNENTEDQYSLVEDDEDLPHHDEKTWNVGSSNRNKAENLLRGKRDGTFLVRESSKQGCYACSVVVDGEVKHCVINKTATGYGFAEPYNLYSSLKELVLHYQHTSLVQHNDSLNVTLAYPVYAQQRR
Excerpt: as §1, §2, §3, §4, §5
as §6, with “[…]. […]” for “(APC).”

PI3Kdelta, sequence (O00329 whole entry, canonical isoform): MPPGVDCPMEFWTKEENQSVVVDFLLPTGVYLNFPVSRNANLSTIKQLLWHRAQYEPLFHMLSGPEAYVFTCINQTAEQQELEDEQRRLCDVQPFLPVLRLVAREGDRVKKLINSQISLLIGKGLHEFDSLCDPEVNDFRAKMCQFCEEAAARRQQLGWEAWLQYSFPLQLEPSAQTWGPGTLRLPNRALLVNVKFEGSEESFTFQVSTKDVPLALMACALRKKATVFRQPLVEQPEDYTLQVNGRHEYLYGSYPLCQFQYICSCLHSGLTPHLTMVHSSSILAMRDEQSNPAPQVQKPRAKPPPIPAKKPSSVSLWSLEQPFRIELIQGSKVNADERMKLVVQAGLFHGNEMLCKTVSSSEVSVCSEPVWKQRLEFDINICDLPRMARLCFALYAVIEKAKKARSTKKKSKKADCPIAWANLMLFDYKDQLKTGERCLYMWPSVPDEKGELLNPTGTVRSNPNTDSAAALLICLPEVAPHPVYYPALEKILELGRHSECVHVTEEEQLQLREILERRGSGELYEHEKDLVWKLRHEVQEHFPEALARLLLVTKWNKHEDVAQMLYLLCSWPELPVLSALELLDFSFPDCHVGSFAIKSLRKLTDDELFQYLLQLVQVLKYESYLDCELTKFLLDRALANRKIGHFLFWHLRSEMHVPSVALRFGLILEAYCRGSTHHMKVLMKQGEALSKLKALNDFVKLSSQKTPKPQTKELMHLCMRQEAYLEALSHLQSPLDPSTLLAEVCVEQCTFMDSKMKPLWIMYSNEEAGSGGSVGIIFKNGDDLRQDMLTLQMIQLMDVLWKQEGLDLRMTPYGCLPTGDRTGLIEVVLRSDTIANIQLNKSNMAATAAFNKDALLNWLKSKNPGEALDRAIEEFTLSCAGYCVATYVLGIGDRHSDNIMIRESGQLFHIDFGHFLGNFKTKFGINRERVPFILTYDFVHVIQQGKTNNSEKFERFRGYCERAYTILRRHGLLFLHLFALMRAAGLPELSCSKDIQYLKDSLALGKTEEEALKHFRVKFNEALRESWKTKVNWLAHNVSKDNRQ
PI3Kdelta, sequence (P27986 whole entry partner, canonical isoform): as the sequence (P27986 whole entry partner, canonical isoform) above

Compound	IC50 (PI3Kdelta) [nM]	Selectivity versus PI3Kalpha (PI3Kalpha)
CCn1c(-c2cnc(C)nc2)nc2c(N[C@H](C(=O)N3C[C@@H](C)O[C@@H](C)C3)[C@@H](C)OC)ccnc21 [Compound 3-3, N-[(1S,2R)-1-{[(cis)-2,6-dimethylmorpholin-4-yl]carbonyl}-2-methoxypropyl]-3-ethyl-2-(2-methylpyrimidin-5-yl)-3H-imidazo[4,5-b]pyridin-7-amine]	8.6	>10
CCC(Oc1ncnc2c1nc(-c1cnn(CC)c1C)n2C)C(=O)N1CCCCC1 (racemic) [Compound 1-2, (R and S)-8-(1-ethyl-5-methyl-1H-pyrazol-4-yl)-9-methyl-6-[1-(piperidin-1-ylcarbonyl)propoxy]-9H-purine]	240	>10
CC[C@H](Nc1ncnc2c1nc(-c1cnc(C)nc1)n2CC)C(=O)N1CC[C@@H](F)C1 [Compound 2-16, 9-ethyl-N-[(1S)-1-{[(3R)-3-fluoropyrrolidin-1-yl]carbonyl}propyl]-8-(2-methylpyrimidin-5-yl)-9H-purin-6-amine]	112	>10
CC[C@H](Nc1ncnc2c1nc(-c1cnc(C)nc1)n2CC)C(=O)N1CC(OC)C1 [Compound 2-17, 9-ethyl-N-{(1S)-1-[(3-methoxyazetidin-1-yl)carbonyl]propyl}-8-(2-methylpyrimidin-5-yl)-9H-purin-6-amine]	74	>10
CC[C@H](Nc1ncnc2c1nc(-c1cnc(C)nc1)n2CC)C(=O)N1CCOC[C@@H]1C [Compound 2-26, 9-ethyl-N-[(1S)-1-{[(3S)-3-methylmorpholin-4-yl]carbonyl}propyl]-8-(2-methylpyrimidin-5-yl)-9H-purin-6-amine]	32	>10
CC[C@H](Nc1ncnc2c1nc(-c1cnc(C)nc1)n2CC)C(=O)N1CC[C@H](F)C1 [Compound 2-15, 9-ethyl-N-[(1S)-1-{[(3S)-3-fluoropyrrolidin-1-yl]carbonyl}propyl]-8-(2-methylpyrimidin-5-yl)-9H-purin-6-amine]	37	>10
CC[C@H](Nc1ncnc2c1nc(-c1cnc(C)nc1)n2CC)C(=O)N1CCOC2(CC2)C1 [Compound 2-29, 9-ethyl-8-(2-methylpyrimidin-5-yl)-N-[(1S)-1-(4-oxa-7-azaspiro[2.5]oct-7-ylcarbonyl)propyl]-9H-purin-6-amine]	11	>10
CCC[C@H](Nc1ncnc2c1nc(-c1cnc(C)nc1)n2CC)C(=O)N1C[C@@H](C)O[C@@H](C)C1 [Compound 2-45, N-[(1S)-1-{[(cis)-2,6-dimethylmorpholin-4-yl]carbonyl}butyl]-9-ethyl-8-(2-methylpyrimidin-5-yl)-9H-purin-6-amine]	26	>10
CC[C@H](Nc1ncnc2c1nc(-c1cnc(C)nc1)n2CC)C(=O)N1C[C@@H]2C[C@H]1CO2 [Compound 2-31, 9-ethyl-8-(2-methylpyrimidin-5-yl)-N-{(1S)-1-[(1S,4S)-2-oxa-5-azabicyclo[2.2.1]hept-5-ylcarbonyl]propyl}-9H-purin-6-amine]	37	>10
CC[C@H](Nc1ncnc2c1nc(-c1ccc(C(F)(F)F)nc1)n2CC)C(=O)N1C[C@@H](C)O[C@@H](C)C1 [Compound 2-7, N-[(1S)-1-{[(cis)-2,6-dimethylmorpholin-4-yl]carbonyl}propyl]-9-ethyl-8-[6-(trifluoromethyl)pyridin-3-yl]-9H-purin-6-amine]	2.8	>10
CC[C@H](Nc1ncnc2c1nc(-c1cnc(C)nc1)n2CC)C(=O)N1CC(=O)N(C)C(C)C1 (single isomer, unassigned) [Compound 4-6, (S or R)-4-[(2S)-2-{[9-ethyl-8-(2-methylpyrimidin-5-yl)-9H-purin-6-yl]amino}butanoyl]-1,6-dimethylpiperazin-2-one]	26	>10
CCn1c(-c2cnc(C)nc2)nc2c(N[C@@H](C)CC(=O)N3C[C@@H](C)O[C@@H](C)C3)ncnc21 [Compound 2-53, N-{(1S)-3-[(cis)-2,6-dimethylmorpholin-4-yl]-1-methyl-3-oxopropyl}-9-ethyl-8-(2-methylpyrimidin-5-yl)-9H-purin-6-amine]	37	>10
CC[C@H](Nc1ncnc2c1nc(-c1cnc(C)nc1)n2CC)C(=O)N1C[C@H](C)O[C@@H](C)C1 (stereo in doubt) [Compound 2-36, N-[(1S)-1-{[(trans)-2,6-dimethylmorpholin-4-yl]carbonyl}propyl]-9-ethyl-8-(2-methylpyrimidin-5-yl)-9H-purin-6-amine]	9.1	>10
CCn1c(-c2cnc(C)nc2)nc2c(N[C@@H](C)CC(=O)N3CCCC3)ncnc21 [Compound 2-59, 9-ethyl-N-[(1S)-1-methyl-3-oxo-3-pyrrolidin-1-ylpropyl]-8-(2-methylpyrimidin-5-yl)-9H-purin-6-amine]	63	>10
CCn1c(-c2cnc(C)nc2)nc2c(N[C@@H](CC(N)=O)C(=O)N3C[C@@H](C)O[C@@H](C)C3)ncnc21 [Compound 2-41, (3S)-4-[(cis)-2,6-dimethylmorpholin-4-yl]-3-{[9-ethyl-8-(2-methylpyrimidin-5-yl)-9H-purin-6-yl]amino}-4-oxobutanamide]	110	>10
CC[C@H](Nc1ccnc2c1nc(-c1ccc(C(F)(F)F)nc1)n2CC)C(=O)N1C[C@@H](C)O[C@@H](C)C1 [Compound 3-2, N-[(1S)-1-{[(cis)-2,6-dimethylmorpholin-4-yl]carbonyl}propyl]-3-ethyl-2-[6-(trifluoromethyl)pyridin-3-yl]-3H-imidazo[4,5-b]pyridin-7-amine]	6.2	>10
CC[C@H](Nc1ncnc2c1nc(-c1cnc(C)nc1)n2CC)C(=O)N1CC2(CCCC2)C1 [Compound 2-21, N-[(1S)-1-(2-azaspiro[3.4]oct-2-ylcarbonyl)propyl]-9-ethyl-8-(2-methylpyrimidin-5-yl)-9H-purin-6-amine]	14	>10
CCn1c(-c2cnc(C)nc2)nc2c(N[C@@H](CC(C)C)C(=O)N3C[C@@H](C)O[C@@H](C)C3)ncnc21 [Compound 2-44, N-[(1S)-1-{[(cis)-2,6-dimethylmorpholin-4-yl]carbonyl}-3-methylbutyl]-9-ethyl-8-(2-methylpyrimidin-5-yl)-9H-purin-6-amine]	140	>10
